Reference: publication PMC10885153, “Membrane Permeability in a Large Macrocyclic Peptide Driven by a Saddle-Shaped Conformation” (Journal of the American Chemical Society, 2024)
Values after ≈ are worked out from the molar mass of the structure shown. Read-outs that look alike come from different tables or passages of the source. Positions of bridges follow the written chain, without caps; N, C: chain ends. Non-standard residues stand in square brackets, D forms with d. Residues, ends and D or L forms follow the SMILES beside them. Cha = N[C@@H](CC1CCCCC1)C(=O)O; NMeNva = CCC[C@H](NC)C(=O)O; NMeC = CN[C@@H](CS)C(=O)O; NMeA = CN[C@@H](C)C(=O)O; dAbu = CC[C@@H](N)C(=O)O; dNMeA = CN[C@H](C)C(=O)O; Nva = CCC[C@H](N)C(=O)O; Abu = CC[C@H](N)C(=O)O; Nleu = CC(C)CNCC(=O)O; NPrGly = CCCNCC(=O)O; NEtG = CCNCC(=O)O

Assays:
[1] = system: Mdr1 knockout Madin–Darby canine kidney (MDCK) cells
Procedure: (§1) We also tested the permeabilities of the pure compounds in a cell-based trans-well permeability assay using Mdr1 knockout Madin–Darby canine kidney (MDCK) cells which minimize the endogenous efflux activity of traditional MDCK cells.[54]
(§2) The gMDCKI cell line (overexpressed cell line of Madin -Darby Canine Kidney which acquired from the NIH)
(§3) maintained in DMEM medium supplemented with 1% pen -strep, 5 µg/mL Plasmocin, and 10% FBS under
(§4) standard culture conditions (37 °C, 95% humidity, and 5% CO2), were seeded (0.75 x 10^5 cells) on the HTS
(§5) Transwell-96 permeable support (Corning) to form a confluent monolayer for two days.
(§6) All experimental steps were fully automated on Hamilton Vantage. Compound stock solution (1 mM in
(§7) DMSO) was diluted (10 μM final in HBSS, pH 7.4) with Lucifer Yellow as leakage indicator (20 μM). After
(§8) washing with HBSS buffer, the solution of test compounds was added to the apical side of the monolayers.
(§9) The plate was incubated for 3 h at 37 °C. T0 samples (10 µL of the 10 µM compounds diluted solution with
(§10) LY) were transferred to a 96-well plate, and then 40 µL of HBSS was added. After 3 hours, 50 μL basolateral
(§11) samples in the receiving plate were transferred to a fresh 96-well plate and added 100 μL of IS solution
(§12) (Propranolol). LY were read by plate reader and the samples were analyzed by LC/MS/MS.
(§13) The apparent permeability coefficient (Papp) is calculated from the permeation rate and compound
concentration at t=0h and t=3h. Where:
(§14) dQ/dt: amount of product present in the basal (A-B) or apical (B-A) compartment as a function of time
A: area of transwell (cm2).
(§15) C0: initial concentration of product applied in the apical (A -B) or basal (B-A) compartment (nmol/ml).

in vitro [2] = conditions: PAMPA
Procedure: assay was carried out with a 96-well donor plate with 0.45 μ hydrophobic Immobilon-P membrane supports
(Millipore MAIPNTR10) and a 96-well Teflon acceptor plate (Millipore MSSACCEPTOR). The PAMPA
protocol then proceeded as follows:
Donor well solutions were prepared to a volume of 1 000 µL with the analytes as a solution in 1X
PBS pH 7.4 and 5% DMSO. To a 3 mL Eppendorf tube was added 950 µL of 1X PBS pH 7.4, 40
Analyte – 10 µM per compound
sonicated (5 min) to ensure full dissolution of the lecithin. The donor membrane plate was turned
upside down and bottom of the membranes exposed. 5 µL of the 1% soy lecithin solution in
dodecane was then placed on the bottom of the membrane, allowing the drop to spread across the
full area of the membrane. Any membranes with visible damage were not used in the assay. The
membranes were allowed to equilibrate for 5 min before loading.
3. Each well within the Teflon block acceptor plate that was to be used in the assay was then loaded
with 300 µL of 1X PBS pH 7.4 and 5% DMSO.
Working without break, 150 µL of each donor well solution was transferred from the to the 96-well
donor plate. Each mixture of interest was r un in quadruplicate, using a new well for each replicate.
As soon as the 96-well donor plate was finished being loaded, it was gently placed into the 96-well
Teflon acceptor plate, taking care not to trap any air bubbles beneath the membrane.
The donor/acceptor plates were covered gently with the lid to minimize evaporation and transferred
gently as a system to a sealed chamber and left to sit overnight at room temperature. The chamber
was kept from drying by placing a wet paper towel within to prevent evaporation.
After ~19-20 hours the donor plate was removed from the acceptor plate.
50 µL of each well (donor and acceptor) were transferred to a 96 -well plate and diluted with 50 µL
of methanol prior to heat sealing and quantification by UPLC -MS.

in vitro [3] = conditions: dog, pH 7.4
Procedure: as §1, §2, §3, §4, §5, §6, §7, §8, §9, §10, §11, §12, §13
concentration at t=0h and t=3h. Where:
as §14
A: area of transwell (cm2).
as §15

[4] = PAMPA, 10 µM, pH 7.4
physchem = conditions: pH 7.4, aqueous with cosolvent or surfactant or cyclodextrin, kinetic from dmso stock
Procedure: Kinetic Solubility PBS Protocol
4 µL of 10 mM compound in DMSO stock was added to 196 µL 1 X PBS pH 7.4 in a 96 -well microplate to
get a final concentration of 200 µM to shake for 24 hours at 1000 rpm. The sample was filtered sample
using a 96-Multiscreen HTS filter plate (Millipore MSSL BPC50) and a positive pressure manifold.

in vitro [5] = conditions: PAMPA, pH 7.4, Permeability (Papp) PAMPA (mixture)
[6] = pH 7.4, Permeability (Papp) PAMPA (indiv.)

SMILES | Papp at 10 µM (in vitro [2]; pH 7.4, PAMPA Papp) | Papp at 3 h, 10 µM (in vitro [3]; MDCK) | Papp A→B at 3 h, 10 µM (in vitro [3]) | %R_avg [4] | solubility kinetic at 24 h (physchem) | Papp at 10 µM (in vitro [2]; [6]) | Papp A→B at 3 h, 10 µM (in vitro [3]; MDCK) | also measured
CCOC(=O)[C@@H]1CSCC(=O)N[C@H](CC)C(=O)N(C)[C@@H](C)C(=O)N[C@@H](CC(C)C)C(=O)N(C)[C@H](C)C(=O)N(CC(C)C)CC(=O)N[C@H](CC(C)C)C(=O)N(C)[C@@H](C)C(=O)N[C@@H](CC(C)C)C(=O)N1C [A1-7L, O=C(N(C)[C@H](C(OCC)=O)CSCC(N[C@@H](C(N(C)[C@@H](C)C(N[C@@H](CC(C)C)C(N(C)[C@H](C)C(N(CC(C)C)CC(N[C@@H]1CC(C)C)=O)=O)=O)=O)=O)CC)=O)[C@H](CC(C)C)NC([C@H](C)N(C)C1=O)=O] ({CH2CO}-[dAbu][NMeA]L[dNMeA][Nleu][dL][NMeA]L[NMeC]-OEt; thioether N-9) |  |  |  |  |  |  |  | MDCK Pe_avg ([1]; resynthesized stereoscan compounds, 10 μM, HBSS pH 7.4, 3 h): 6.41 ×10⁻⁶ cm/s
CCOC(=O)[C@@H]1CSCC(=O)N[C@H](CC)C(=O)N(CC(C)C)CC(=O)N[C@H](CC(C)C)C(=O)N(C)[C@H](C)C(=O)N(C)[C@@H](C)C(=O)N[C@H](CC(C)C)C(=O)N(C)[C@H](C)C(=O)N[C@@H](CC(C)C)C(=O)N1C [B1-3D, O=C([C@@H](NC([C@H](N(C([C@H](NC([C@@H](N(C([C@H](N(C)C([C@H](NC(CN1CC(C)C)=O)CC(C)C)=O)C)=O)C)C)=O)CC(C)C)=O)C)C)=O)CC(C)C)N([C@@H](CSCC(N[C@H](CC)C1=O)=O)C(OCC)=O)C] ({CH2CO}-[dAbu][Nleu][dL][dNMeA][NMeA][dL][dNMeA]L[NMeC]-OEt; thioether N-9) | 1.5 ×10⁻⁶ cm/s | 0.5 ×10⁻⁶ cm/s | 0.48 ×10⁻⁶ cm/s |  |  |  |  | 
CCOC(=O)[C@@H]1CSCC(=O)N[C@H](CC)C(=O)N(CC(C)C)CC(=O)N[C@@H](CC(C)C)C(=O)N2CCC[C@@H]2C(=O)N(C)[C@@H](C)C(=O)N[C@H](CC(C)C)C(=O)N(C)[C@H](C)C(=O)N[C@@H](CC(C)C)C(=O)N1C [B1-4dP, O=C([C@@H](NC([C@H](N(C([C@H](NC([C@@H](N(C([C@@H]1N(CCC1)C([C@@H](NC(CN2CC(C)C)=O)CC(C)C)=O)=O)C)C)=O)CC(C)C)=O)C)C)=O)CC(C)C)N([C@@H](CSCC(N[C@H](CC)C2=O)=O)C(OCC)=O)C] ({CH2CO}-[dAbu][Nleu]L[dP][NMeA][dL][dNMeA]L[NMeC]-OEt; thioether N-9) | 0.1 ×10⁻⁶ cm/s |  | 0.0274 ×10⁻⁶ cm/s |  |  |  |  | Papp at 10 µM (in vitro [2]; pH 7.4, PAMPA Pe_avg): 0.213 ×10⁻⁶ cm/s
CCOC(=O)[C@@H]1CSCC(=O)N[C@H](CC)C(=O)N(CC(C)C)CC(=O)N[C@@H](CC(C)C)C(=O)N(C)[C@H](C)C(=O)N(C)[C@@H](C)C(=O)N[C@@H](CC(C)C)C(=O)N(C)[C@H](C)C(=O)N[C@@H](CC(C)C)C(=O)N1C [B1-6L, O=C([C@@H](NC([C@H](N(C([C@@H](NC([C@@H](N(C([C@H](N(C)C([C@@H](NC(CN1CC(C)C)=O)CC(C)C)=O)C)=O)C)C)=O)CC(C)C)=O)C)C)=O)CC(C)C)N([C@@H](CSCC(N[C@H](CC)C1=O)=O)C(OCC)=O)C] ({CH2CO}-[dAbu][Nleu]L[dNMeA][NMeA]L[dNMeA]L[NMeC]-OEt; thioether N-9) | 0.7 ×10⁻⁶ cm/s | 0.4 ×10⁻⁶ cm/s | 0.39 ×10⁻⁶ cm/s |  |  |  |  | Papp at 10 µM (in vitro [2]; pH 7.4, PAMPA Pe_avg): 0.738 ×10⁻⁶ cm/s
CCOC(=O)[C@@H]1CSCC(=O)N[C@H](CC)C(=O)N(CC(C)C)CC(=O)N[C@@H](CC(C)C)C(=O)N(C)[C@H](C)C(=O)N(C)[C@@H](C)C(=O)N[C@H](CC(C)C)C(=O)N(C)[C@@H](C)C(=O)N[C@@H](CC(C)C)C(=O)N1C [B1-7L, O=C([C@@H](NC([C@@H](N(C([C@H](NC([C@@H](N(C([C@H](N(C)C([C@@H](NC(CN1CC(C)C)=O)CC(C)C)=O)C)=O)C)C)=O)CC(C)C)=O)C)C)=O)CC(C)C)N([C@@H](CSCC(N[C@H](CC)C1=O)=O)C(OCC)=O)C] ({CH2CO}-[dAbu][Nleu]L[dNMeA][NMeA][dL][NMeA]L[NMeC]-OEt; thioether N-9) | 5.7 ×10⁻⁶ cm/s | 1.2 ×10⁻⁶ cm/s |  |  |  |  |  | MDCK Pe_avg ([1]; dog, MDCK, 3 h, 10 µM, pH 7.4): 1.21 ×10⁻⁶ cm/s
CCC[C@@H]1NC(=O)[C@H](C)N(C)C(=O)[C@H](CC(C)C)NC(=O)CSC[C@@H](C(=O)OCC)N(C)C(=O)[C@H](CC(C)C)NC(=O)[C@H](C)N(C)C(=O)[C@H](CC(C)C)NC(=O)CN(CCC)C(=O)[C@H]2CCCN2C1=O [LA07, O=C(N(C)[C@H](C(OCC)=O)CSCC(N[C@H](C(N(C)[C@@H](C)C(N[C@@H](CCC)C(N1[C@H](CCC1)C(N(CCC)CC(N[C@H]2CC(C)C)=O)=O)=O)=O)=O)CC(C)C)=O)[C@H](CC(C)C)NC([C@H](C)N(C)C2=O)=O] ({CH2CO}-L[NMeA][Nva][dP][NPrGly]L[NMeA]L[NMeC]-OEt; thioether N-9) |  |  |  | 6.6% | 122 µM (≈ 123 µg/mL) | 1.3 ×10⁻⁶ cm/s | 8.4 ×10⁻⁶ cm/s | Papp at 10 µM (in vitro [5]): 3 ×10⁻⁶ cm/s
CCC[C@@H]1NC(=O)[C@H](C)N(C)C(=O)[C@H](CC(C)C)NC(=O)CSC[C@@H](C(=O)OCC)N(C)C(=O)[C@H](CC(C)C)NC(=O)[C@H](C)N(C)C(=O)[C@H](CC2CCCCC2)NC(=O)CN(CC)C(=O)[C@H]2CCCN2C1=O [LA09, O=C(N(C)[C@H](C(OCC)=O)CSCC(N[C@H](C(N(C)[C@@H](C)C(N[C@@H](CCC)C(N1[C@H](CCC1)C(N(CC)CC(N[C@H]2CC3CCCCC3)=O)=O)=O)=O)=O)CC(C)C)=O)[C@H](CC(C)C)NC([C@H](C)N(C)C2=O)=O] ({CH2CO}-L[NMeA][Nva][dP][NEtG][Cha][NMeA]L[NMeC]-OEt; thioether N-9) |  |  |  | 7.5% | 10 µM (≈ 10.3 µg/mL) | 0.2 ×10⁻⁶ cm/s | 5.1 ×10⁻⁶ cm/s | 
CCOC(=O)[C@@H]1CSCC(=O)N[C@@H](CC(C)C)C(=O)N(CC)CC(=O)N[C@@H](CC(C)C)C(=O)N2CCC[C@@H]2C(=O)N(C)[C@@H](C)C(=O)N[C@@H](CC)C(=O)N(C)[C@@H](C)C(=O)N[C@@H](CC(C)C)C(=O)N1C [LB02, O=C(N(C)[C@H](C(OCC)=O)CSCC(N[C@H](C1=O)CC(C)C)=O)[C@H](CC(C)C)NC([C@H](C)N(C)C([C@H](CC)NC([C@H](C)N(C)C([C@@H]2N(C([C@H](CC(C)C)NC(CN1CC)=O)=O)CCC2)=O)=O)=O)=O] ({CH2CO}-L[NEtG]L[dP][NMeA][Abu][NMeA]L[NMeC]-OEt; thioether N-9) |  |  | 1.77 ×10⁻⁶ cm/s | 51.1% | 126 µM (≈ 124 µg/mL) | 1.1 ×10⁻⁶ cm/s | 1.8 ×10⁻⁶ cm/s | Papp at 10 µM (in vitro [5]): 1 ×10⁻⁶ cm/s
CCCN1CC(=O)N[C@@H](CC(C)C)C(=O)N2CCC[C@@H]2C(=O)N(C)[C@@H](C)C(=O)N[C@@H](CC)C(=O)N(C)[C@@H](C)C(=O)N[C@@H](CC(C)C)C(=O)N(C)[C@H](C(=O)OCC)CSCC(=O)N[C@@H](CC(C)C)C1=O [LB04, O=C(N(C)[C@H](C(OCC)=O)CSCC(N[C@H](C1=O)CC(C)C)=O)[C@H](CC(C)C)NC([C@H](C)N(C)C([C@H](CC)NC([C@H](C)N(C)C([C@@H]2N(C([C@H](CC(C)C)NC(CN1CCC)=O)=O)CCC2)=O)=O)=O)=O] ({CH2CO}-L[NPrGly]L[dP][NMeA][Abu][NMeA]L[NMeC]-OEt; thioether N-9) |  |  |  | 35.8% | 105 µM (≈ 104 µg/mL) |  | 2.6 ×10⁻⁶ cm/s | MDCK Papp_avg ([1]; dog, MDCK, 3 h, 10 µM, pH 7.4): 2.6 ×10⁻⁶ cm/s
CCC[C@@H]1NC(=O)CN(CCC)C(=O)[C@H](CC(C)C)NC(=O)CSC[C@@H](C(=O)OCC)N(C)C(=O)[C@H](CC(C)C)NC(=O)[C@H](C)N(C)C(=O)[C@H](CC(C)C)NC(=O)[C@H](C)N(C)C(=O)[C@H]2CCCN2C1=O [LB07, O=C(N(C)[C@H](C(OCC)=O)CSCC(N[C@H](C1=O)CC(C)C)=O)[C@H](CC(C)C)NC([C@H](C)N(C)C([C@H](CC(C)C)NC([C@H](C)N(C)C([C@@H]2N(C([C@H](CCC)NC(CN1CCC)=O)=O)CCC2)=O)=O)=O)=O] ({CH2CO}-L[NPrGly][Nva][dP][NMeA]L[NMeA]L[NMeC]-OEt; thioether N-9) | 3.1 ×10⁻⁶ cm/s | 3.2 ×10⁻⁶ cm/s | 3.15 ×10⁻⁶ cm/s |  | 132 µM (≈ 133 µg/mL) | 2.2 ×10⁻⁶ cm/s | 3.2 ×10⁻⁶ cm/s | 
CCC[C@@H]1NC(=O)CN(CC)C(=O)[C@H](CC(C)C)NC(=O)CSC[C@@H](C(=O)OCC)N(C)C(=O)[C@H](CC(C)C)NC(=O)[C@H](C)N(C)C(=O)[C@H](CC2CCCCC2)NC(=O)[C@H](C)N(C)C(=O)[C@H]2CCCN2C1=O [LB09, O=C(N(C)[C@H](C(OCC)=O)CSCC(N[C@H](C1=O)CC(C)C)=O)[C@H](CC(C)C)NC([C@H](C)N(C)C([C@H](CC2CCCCC2)NC([C@H](C)N(C)C([C@@H]3N(C([C@H](CCC)NC(CN1CC)=O)=O)CCC3)=O)=O)=O)=O] ({CH2CO}-L[NEtG][Nva][dP][NMeA][Cha][NMeA]L[NMeC]-OEt; thioether N-9) |  |  |  | 6.4% | 19 µM (≈ 19.7 µg/mL) | 1.4 ×10⁻⁶ cm/s | 4.4 ×10⁻⁶ cm/s | 
CCC[C@@H]1NC(=O)[C@H](C)N(C)C(=O)[C@H](CC(C)C)NC(=O)CSC[C@@H](C(=O)OCC)N(C)C(=O)[C@H](CC(C)C)NC(=O)[C@H](C)N(C)C(=O)[C@H](CC(C)C)NC(=O)[C@H](CCC)N(C)C(=O)[C@H]2CCCN2C1=O [LC07, O=C(N(C)[C@H](C(OCC)=O)CSCC(N[C@H](C(N(C)[C@@H](C)C(N[C@@H](CCC)C(N1[C@H](CCC1)C(N(C)[C@@H](CCC)C(N[C@H]2CC(C)C)=O)=O)=O)=O)=O)CC(C)C)=O)[C@H](CC(C)C)NC([C@H](C)N(C)C2=O)=O] ({CH2CO}-L[NMeA][Nva][dP][NMeNva]L[NMeA]L[NMeC]-OEt; thioether N-9) |  |  |  | 4.5% | 109 µM (≈ 111 µg/mL) | 1.1 ×10⁻⁶ cm/s | 3.9 ×10⁻⁶ cm/s | 
